Experimental data as given in US20240208908A1, “CRYSTAL FORM OF PYRIDINE NITROGEN OXIDE COMPOUND AND USE THEREOF” (SHANGHAI JEMINCARE PHARMACEUTICAL CO., LTD, priority 2021, published 2024).

Assays:
[1] = Suspension competition test of crystal forms; format: physicochemical
Protocol: In order to further study the transformation relationship between the free anhydrous crystal form and the hydrate crystal form, a suspension competition test was carried out on the anhydrous crystal form B/G and the hydrate crystal form A. Firstly, the suspension competition test between […] B and G was set up at 5° C., room temperature and 50° C. in ACN and room temperature in EtOAc. The specific steps are as follows: 1) saturated solution of the free state was prepared in different solvent systems at corresponding temperatures; 2) the corresponding free crystal form sample was added into 0.5 mL of the saturated solution to form a suspension; 3) the mixture was magnetically stirred under corresponding temperature conditions; 4) after stirring for 1 to 5 days, the solid was separated for XRPD testing.
Therefore, a suspension competition test of stable anhydrous crystal form B at room temperature and hydrate form A with different water activities (aw=0/0.2/0.4/0.6/0.8/1.0) of ACN/H2O at room temperature was set up. […] Reference source not found.

[2] = Solid-state stability experiment (XRPD, HPLC); format: physicochemical; settings: for Crystal form variation: XRPD
Protocol: The stability test in the high-performance liquid chromatography (IPLC) test used in the present disclosure is tested by an Agilent 1260 high-performance liquid chromatograph, and the analytical conditions are shown in Table 11.
In order to evaluate the solid stability of the free anhydrous crystal form B, an appropriate amount of the sample was respectively weighed, placed at 60° C. for 24 hours, and exposed at 25° C./60% RH and 40° C./75[…] for one week. The crystal changes of the solid samples placed under different conditions were tested by XRPD, and the chemical stability was evaluated by HPLC.

[3] = molecular target: T1, NaV1.8 (Homo sapiens, UniProt Q9Y5Y9); assay: Whole-cell patch-clamp, blocking activity on NaV1.8 channel current (CHO cell line stably expressing NaV1.8); format: cell-based; settings: statement in words
T1 construct: expressed in transfected cells
Protocol: • 1. Test method: the patch-clamp technique was used to detect the effects of compound on the voltage-gated sodium channels (NaV) 1.1 to 1.8 subtype currents
• 1) the specific information of CHO cell line stably expressing NaV1.8 channel was as follows: SCN10A: NM_006514 • 2) Cells were cultured in HAM'S/F-12 medium containing 10% fetal bovine serum, 10 μg/mL Blasticidin, 200 μg/mL Hygromycin B and 100 μg/mL Zeocin at 37° C. and 5% carbon dioxide concentration. • 3) Cell passage: the old medium was removed and washed once with PBS, and then 1 mL of 0.25%-Trypsin-EDTA solution was added and incubated at 37° C. for 1.5 minutes. When the cells were detached from the bottom of the plate, 5 mL of 37° C. prewarmed complete medium was added. […]
Double-pulse mode was performed by two 0 mV depolarization test pulses (TP1 and TP2) for 50 ms. […] Data acquisition was repeated at 20 s intervals and the current peaks at two test pulses were measured.
While the NaV channel current recorded in the whole cell was stable, the drug was administered, and each drug concentration was applied for 5 minutes (or the current is stabilized) and then the next concentration was detected; each test compound was detected at multiple concentrations. […] The current detected by each cell in the external fluid without the compounds was used as its own control group. Multiple cells were detected independently and repeatedly. […]

[4] = Pharmacokinetics in rats, single intravenous injection or intragastric administration; format: in vivo, male Sprague Dawley rats
Protocol: In this experimental embodiment, in vivo pharmacokinetic evaluation was evaluated in rats by single intravenous injection or intragastric oral administration.
Experimental methods and conditions: male Sprague Dawley rats; all animals were fasted overnight, and were given a single dose of the compound to be tested at 1 mg/kg (intravenous injection, solvent 5% DMSO/10% Solutol/85% Saline) and 10 mg/kg (intragastric administration) respectively, at 5 min, 15 min, 30 min, 1 hr, 2 hr, 4 hr, 6 hr, 8 hr and 24 h after drug administration, blood was collected from the submandibular vein, about 0.20 mL per sample was collected, heparin sodium was used for anticoagulation, and then it was placed on ice after collection and centrifuged within 1 hour to separate the plasma for testing. The concentration of the drug in the plasma was measured by liquid tandem mass spectrometry (LC/MS/MS), and the measured concentration was used to calculate pharmacokinetic parameters.

[5] = 25° C./60% RH/exposure, one week
[6] = 40° C./75% RH/exposure, one week
[7] = statement in words, all test conditions

T1 sequence (Q9Y5Y9 whole entry): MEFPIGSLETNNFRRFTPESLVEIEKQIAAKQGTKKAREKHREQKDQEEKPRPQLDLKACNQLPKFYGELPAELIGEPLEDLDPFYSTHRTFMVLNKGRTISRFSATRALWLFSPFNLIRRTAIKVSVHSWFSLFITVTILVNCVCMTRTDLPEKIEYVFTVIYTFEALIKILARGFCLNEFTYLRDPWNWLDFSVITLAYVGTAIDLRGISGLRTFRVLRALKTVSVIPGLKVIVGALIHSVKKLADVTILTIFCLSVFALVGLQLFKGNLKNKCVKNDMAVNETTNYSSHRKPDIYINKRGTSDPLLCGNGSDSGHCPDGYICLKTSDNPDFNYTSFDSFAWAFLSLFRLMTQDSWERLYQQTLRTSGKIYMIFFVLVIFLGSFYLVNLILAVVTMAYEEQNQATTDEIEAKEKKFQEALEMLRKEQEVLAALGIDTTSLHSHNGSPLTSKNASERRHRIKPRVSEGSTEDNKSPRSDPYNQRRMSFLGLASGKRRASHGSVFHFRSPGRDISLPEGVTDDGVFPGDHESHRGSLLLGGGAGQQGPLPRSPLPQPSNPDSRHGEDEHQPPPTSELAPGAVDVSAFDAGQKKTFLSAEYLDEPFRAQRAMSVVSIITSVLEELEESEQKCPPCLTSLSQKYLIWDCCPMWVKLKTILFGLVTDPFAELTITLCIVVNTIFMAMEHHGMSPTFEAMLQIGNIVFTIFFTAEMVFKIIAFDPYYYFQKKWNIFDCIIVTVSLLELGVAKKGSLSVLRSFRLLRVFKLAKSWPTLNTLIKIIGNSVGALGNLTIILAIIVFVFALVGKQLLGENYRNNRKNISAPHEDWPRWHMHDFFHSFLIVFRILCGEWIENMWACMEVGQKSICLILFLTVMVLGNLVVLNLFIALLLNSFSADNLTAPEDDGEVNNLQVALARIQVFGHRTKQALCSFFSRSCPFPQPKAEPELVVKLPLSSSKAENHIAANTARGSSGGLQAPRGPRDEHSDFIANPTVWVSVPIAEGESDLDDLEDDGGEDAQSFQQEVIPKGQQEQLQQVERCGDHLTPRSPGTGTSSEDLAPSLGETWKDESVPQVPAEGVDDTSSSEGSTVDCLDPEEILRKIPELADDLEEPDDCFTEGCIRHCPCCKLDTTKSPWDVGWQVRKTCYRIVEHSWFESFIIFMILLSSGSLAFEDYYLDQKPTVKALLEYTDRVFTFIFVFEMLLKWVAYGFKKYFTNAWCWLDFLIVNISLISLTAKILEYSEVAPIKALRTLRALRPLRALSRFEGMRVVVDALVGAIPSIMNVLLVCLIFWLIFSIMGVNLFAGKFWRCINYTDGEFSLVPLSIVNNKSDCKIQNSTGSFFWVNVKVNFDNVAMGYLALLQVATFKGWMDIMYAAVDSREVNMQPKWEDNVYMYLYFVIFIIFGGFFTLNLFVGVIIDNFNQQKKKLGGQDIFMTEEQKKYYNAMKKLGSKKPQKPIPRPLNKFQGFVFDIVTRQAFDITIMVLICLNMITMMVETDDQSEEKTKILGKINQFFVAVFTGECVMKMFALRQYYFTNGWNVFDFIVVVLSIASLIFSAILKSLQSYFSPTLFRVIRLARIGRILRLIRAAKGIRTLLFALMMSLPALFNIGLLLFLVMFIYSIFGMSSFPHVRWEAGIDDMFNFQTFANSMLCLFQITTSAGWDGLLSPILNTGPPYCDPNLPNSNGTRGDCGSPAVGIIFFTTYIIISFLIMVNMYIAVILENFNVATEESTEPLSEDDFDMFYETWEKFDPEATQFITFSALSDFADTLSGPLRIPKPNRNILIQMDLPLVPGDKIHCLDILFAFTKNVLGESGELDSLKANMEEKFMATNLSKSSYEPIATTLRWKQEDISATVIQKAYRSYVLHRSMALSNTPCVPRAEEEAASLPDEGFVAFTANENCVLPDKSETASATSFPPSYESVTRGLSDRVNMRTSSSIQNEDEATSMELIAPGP

O=C(Nc1ccc[n+]([O-])c1)c1cc(Cl)c(Cl)cc1Oc1ccc(OC(F)(F)F)cc1 [Crystal form B/G]
crystal form obtained in suspension competition ([1]; ACN at 5° C., room temperature, 50° C. and EtOAc at room temperature): only the free crystal form B was obtained | Competition test result (crystal form obtained) ([1]; test 22-B1, ACN (aw to 0), 5° C.): Free crystal form B | Competition test result (crystal form obtained) ([1]; test 22-B2, ACN (aw to 0), room temperature): Free crystal form B | Competition test result (crystal form obtained) ([1]; test 22-B3, ACN (aw to 0), 50° C.): Free crystal form B | Competition test result (crystal form obtained) ([1]; test 22-B4, EtOAc (aw to 0), room temperature): Free crystal form B

O=C(Nc1ccc[n+]([O-])c1)c1cc(Cl)c(Cl)cc1Oc1ccc(OC(F)(F)F)cc1 [Free crystal form B]
stability and druggability compared with hydrate crystal form ([1]; conclusion in words): better stability | Purity [2, 5]: 99.90 area % | Relative to initial purity [2, 5]: 99.99% | Crystal form variation [2, 5]: Constant | Purity [2, 6]: 99.90 area % | Relative to initial purity [2, 6]: 99.99% | Crystal form variation [2, 6]: Constant | Purity ([2]; 60° C./closed, 24 hours): 99.91 area % | Relative to initial purity ([2]; 60° C./closed, 24 hours): 100.00% | Crystal form variation ([2]; 60° C./closed, 24 hours): Constant | Purity ([2]; Start): 99.91 area % | HPLC purity under the test conditions [2, 7]: not decreased obviously | crystal form change under the test conditions [2, 7]: not changed

O=C(Nc1ccc[n+]([O-])c1)c1cc(Cl)c(Cl)cc1Oc1ccc(OC(F)(F)F)cc1 [Crystal form A/B]
crystal form obtained in suspension competition ([1]; ACN/H2O, room temperature, aw=0 to 0.4): anhydrous crystal form B was obtained | crystal form obtained in suspension competition ([1]; ACN/H2O, room temperature, aw=0.6 to 1 (pure water)): hydrate crystal form A was obtained | Competition test result (crystal form obtained) ([1]; test 22-A1, ACN (aw to 0), room temperature): Free crystal form B | Competition test result (crystal form obtained) ([1]; test 22-A2, ACN/H2O (981:19, aw to 0.2), room temperature): Free crystal form B | Competition test result (crystal form obtained) ([1]; test 22-A3, ACN/H2O (957:43, aw to 0.4), room temperature): Free crystal form B | Competition test result (crystal form obtained) ([1]; test 22-A4, ACN/H2O (924:76, aw to 0.6), room temperature): Free crystal form B | Competition test result (crystal form obtained) ([1]; test 22-A5, ACN/H2O (87:13, aw to 0.8), room temperature): Free crystal form B | Competition test result (crystal form obtained) ([1]; test 22-A6, H2O (aw to 1.0), room temperature): Free crystal form B

O=C(Nc1ccc[n+]([O-])c1)c1cc(Cl)c(Cl)cc1Oc1ccc(OC(F)(F)F)cc1 [Compound of formula (I)]
blocking effect on NaV1.8 channel activity [3]: obvious blocking effect | F ([4]; rat, intragastric 10 mg/kg): 72.59% | pharmacokinetic absorption in rats ([4]; statement in words): good pharmacokinetic absorption
